Experiments:
A549 [1] = test: Cytotoxicity against human A549 cells by sulforhodamine B assay; format: functional; settings: read-out: ED50 (the source's name)
HUVEC = test: Antiangiogenesis activity against HUVEC cells; format: functional; settings: Homo sapiens, read-out: ED50 (the source's name)
DU-145 [2] = test: Cytotoxicity against human DU145 cells by sulforhodamine B assay; format: functional; settings: read-out: ED50 (the source's name)
PC-3 [3] = test: Cytotoxicity against human PC3 cells by sulforhodamine B assay; format: functional; settings: read-out: ED50 (the source's name)
1A9 [4] = test: Cytotoxicity against human 1A9 cells by sulforhodamine B assay; format: functional; settings: read-out: ED50 (the source's name)
[5] = Cytotoxicity against human MRC5 cells at 10 ug/mL by sulforhodamine B assay; format: cell-based; settings: read-out: Inhibition
LNCaP [6] = test: Cytotoxicity against human LNCAP cells by sulforhodamine B assay; format: functional; settings: read-out: ED50 (the source's name)
MCF7 [7] = test: Cytotoxicity against human MCF7 cells by sulforhodamine B assay; format: functional; settings: read-out: ED50 (the source's name)
KB [8] = test: Cytotoxicity against human KB cells by sulforhodamine B assay; format: functional; settings: read-out: ED50 (the source's name)
[9] = Cytotoxicity against multi drug-resistant human KBVIN cells by sulforhodamine B assay; format: functional; settings: read-out: ED50 (the source's name)
[10] = Cytotoxicity against multi drug-resistant human KBVIN cells at 20 ug/mL by sulforhodamine B assay; format: functional
DU-145 [11] = test: Cytotoxicity against human DU145 cells at 20 ug/mL by sulforhodamine B assay; format: functional
LNCaP [12] = test: Cytotoxicity against human LNCAP cells at 20 ug/mL by sulforhodamine B assay; format: functional
A549 [13] = test: Cytotoxicity against human A549 cells at 20 ug/mL by sulforhodamine B assay; format: functional
MCF7 [14] = test: Cytotoxicity against human MCF7 cells at 20 ug/mL by sulforhodamine B assay; format: functional
KB [15] = test: Cytotoxicity against human KB cells at 20 ug/mL by sulforhodamine B assay; format: functional
1A9 [16] = test: Cytotoxicity against human 1A9 cells at 20 ug/mL by sulforhodamine B assay; format: functional
PC-3 [17] = test: Cytotoxicity against human PC3 cells at 20 ug/mL by sulforhodamine B assay; format: functional

COc1cc([C@@H]2c3cc4c(cc3[C@@H](Nc3ccc(C(=O)NCCC(=O)O[C@@H](C(=O)O[C@H]5C[C@@]6(O)[C@@H](OC(=O)c7ccccc7)[C@@H]7[C@]8(OC(C)=O)CO[C@@H]8C[C@H](O)[C@@]7(C)C(=O)[C@H](OC(C)=O)C(=C5C)C6(C)C)[C@@H](NC(=O)c5ccccc5)c5ccccc5)cc3)[C@H]3COC(=O)[C@H]23)OCO4)cc(OC)c1O
EC50 (A549 [1]): 10.1 nM
EC50 (HUVEC): 4.93 nM
EC50 (DU-145 [2]): 8.6 nM
EC50 (PC-3 [3]): 12.1 nM
EC50 (1A9 [4]): 2.9 nM
cytotoxicity at 10 ug/mL [5]: < 50%
EC50 (LNCaP [6]): 4.2 nM
EC50 (MCF7 [7]): 6.4 nM
EC50 (KB [8]): 8.4 nM
EC50 [9]: 9960 nM

CC1(C)[C@@H](O)CC[C@]2(C)[C@H]3C(=O)C=C4[C@@H]5C[C@@](C)(C(=O)O)CC[C@]5(C)CC[C@@]4(C)[C@]3(C)CC[C@@H]12 [ENOXOLONE]
inhibition at 20 µg/mL [10]: < 50%
inhibition at 20 µg/mL (DU-145 [11]): < 50%
inhibition at 20 µg/mL (LNCaP [12]): < 50%
inhibition at 20 µg/mL (A549 [13]): < 50%
inhibition at 20 µg/mL (MCF7 [14]): < 50%
inhibition at 20 µg/mL (KB [15]): < 50%
inhibition at 20 µg/mL (1A9 [16]): < 50%
inhibition at 20 µg/mL (PC-3 [17]): < 50%

Source: ChEMBL document CHEMBL1139194, “Antitumor agents. 256. Conjugation of paclitaxel with other antitumor agents: evaluation of novel conjugates as cytotoxic agents” (Bioorg Med Chem Lett, 2007)
